Patent US20260199213A1, “PEPTIDE HAVING ACTIVITY OF IMPROVING STATE OF SKIN, AND USE THEREOF” (CAREGEN CO., LTD., priority 2022, published 2026)

Experiments:
B16F10 cells = assay: Melanin production in α-MSH-stimulated B16F10 cells; format: cell-based, mouse; details: 200 ng/ml α-MSH, 50 μM or 100 μM peptide, 72 hours, absorbance at 450 nm
Procedure: B16F10 cells, a mouse melanoma cell line, were seeded at a density of 5×10^4 cells/well in a 6-well plate and cultured for 16 hours. Next, the culture medium was replaced with a medium including a 2% serum, and 200 ng/ml of α-MSH (α-melanocyte-stimulating hormones) was added to promote melanin production, in addition, 50 μM or 100 μM of each peptide consisting of the amino acid sequence of SEQ ID NO: 1 was added, and then cultured for 72 hours. Next, the cultured cells were dissolved with 1N NaOH and the absorbance at 450 nm was measured. Meanwhile, an untreated group (Con) was used as the control group, a group to which only α-MSH was added was used as the negative control group, a group to which the peptide consisting of the amino acid sequence of SEQ ID NO: 2 or 3 and α-MSH were added (50 μM, 100 μM) as the comparison group, and a group to which Arbutin (200 μM, 500 μM), known as a skin whitening agent, and α-MSH were added was used as the positive control group.

aquaporin-3 (AQP3) = assay: AQP3 expression by RT-PCR in HaCaT cells; format: cell-based; details: 10 μM, 50 μM or 1000 μM peptide, 24 hours
Procedure: In this example, the aim was to confirm the effect of the peptides according to an example on strengthening the skin barrier, by evaluating the expression levels of sirtuin-1 (SIRT-1) or aquaporin-3 (AQP3).
Specifically, HaCaT cells were seeded in a 6-well plate at a density of 3×10^5 cells/well and cultured for 24 hours. Next, the cells were washed once with serum-free DMEM media, and 10 μM, 50 μM or 1000 μM of the peptide consisting of the amino acid sequence of SEQ ID NO: 1 was dispensed into 1 mL of the serum-free media, and cultured in a CO2 incubator at 37° C. for 24 hours. Next, the culture was washed twice with PBS, and RNA was isolated from the culture using easy blue (iNtRON, Cat. No.: 17061, Korea). Next, using an RT kit (Enzynomics, Cat. NO.: RT200, Korea), the isolated RNA was reverse transcribed to synthesize the respective cDNA. Next, using the synthesized 1 ug cDNA, primers for SIRT-1 or AQP3, and a PCR kit (Enzynomics, Cat. No.: P581T, Korea), polymerase chain reaction (PCR) was performed. Meanwhile, in this example, an untreated group was used as the control group, and a group to which EGF was added was used as a positive control group, the nucleotide sequences of the primers used in this example are shown in Table 3 below.

Col1a1 = Col1a1 expression by RT-PCR in NIH3T3 cells; format: cell-based; details: 10 μM, 50 μM or 1000 μM peptide, 24 hours, vs untreated group
Procedure: In this example, the aim was to confirm the effect of the peptide according to an example on improving endogenous skin aging, including improvement of wrinkles and enhancement of elasticity, etc., by evaluating the expression levels of collagen type 1 (Col1a1), fibronectin, elastin, and hyaluronic acid, which are known components of the dermis.
Specifically, NIH3T3 cells were seeded in a 6-well plate at a density of 3×10^5 cells/well and cultured for 24 hours. Next, the cells were washed once with serum-free DMEM media, and 10 μM, 50 μM or 1000 μM of a peptide consisting of an amino acid sequence of SEQ ID NO: 1 was dispensed into 1 mL of the serum-free media, and cultured in a CO2 incubator at 37° C. for 24 hours. Next, the culture was washed twice with PBS, and RNA was isolated from the culture using easy blue (iNtRON, Cat. No.: 17061, Korea). Next, using an RT kit (Enzynomics, Cat. NO.: RT200, Korea), the isolated RNA was reverse transcribed to synthesize the respective cDNA. Next, using the synthesized 1 ug cDNA, primers for Colla1, fibronectin, or elastin, and a PCR kit (Enzynomics, Cat. No.: P581T, Korea), polymerase chain reaction (PCR) was performed. […]

MMP-1 [1] = assay: MMP-1 expression increased by ultraviolet rays in HaCaT cells (western blot); format: cell-based; details: 20 mJ/cm^2 UV, 10 μM, 50 μM or 1000 μM peptide, 24 hours, FIG. 15
Source text: (§1) It has been reported that MMP-1 (matrix metalloproteinase-1) promotes the decomposition of collagen and the reduction of elastin in the dermis layer, thereby creating wrinkles and causing a decrease in elasticity in the skin. Accordingly, in this example, the aim was to confirm the effect of the peptide according to an embodiment on improving extrinsic skin aging, including improving wrinkles and increasing elasticity, etc., by evaluating the change in the expression level of MMP-1 increased by ultraviolet irradiation.
(§2) Specifically, NIH3T3 cells or HaCaT cells were seeded in a 6-well plate at a density of 5×10^5 cells/well and cultured for 24 hours. Next, the cells were washed once with serum-free DMEM media, and 10 μM, 50 μM or 1000 μM of the peptide consisting of the amino acid sequence of SEQ ID NO: 1 was dispensed into 1 mL of the serum-free media, and cultured in a CO2 incubator at 37° C. for 1 hour. Next, the above culture was transferred to an e-tube, mixed with 1 ml of PBS, and dispensed into a well plate. Next, using a UV irradiator (VILBER LOURMAT, Cat No.: 3102-BSU, France), 6 J/cm^2 ultraviolet rays were irradiated to NIH3T3 cells, and 20 mJ/cm^2 ultraviolet rays were irradiated to HaCaT cells. […] Next, MMP-1 was detected using […]. […]

MMP-1 [2] = assay: MMP-1 expression increased by ultraviolet rays in NIH3T3 cells (western blot); format: cell-based; details: 6 J/cm^2 UV, 10 μM, 50 μM or 1000 μM peptide, 24 hours, FIG. 14
Source text: as §1, §2

GPRGDP [SEQ ID NO: 1]
melanin production (B16F10 cells): decreased
expression of skin barrier factor AQP3 (aquaporin-3 (AQP3)): increases
expression of Col1a1 (Col1a1): increased
expression of MMP-1 increased by ultraviolet irradiation (MMP-1 [1]): reduced or restored
expression of MMP-1 increased by ultraviolet irradiation (MMP-1 [2]): reduced or restored
